In patent US9775844B2, “Heterocyclic compounds and uses thereof” (Infinity Pharmaceuticals, Inc., priority 2014, dated 2017):

What was measured:
PI3K α = PI3K α (Homo sapiens (Human), UniProt P42336); test: PI3-Kinase Promega ADP-Glo Max assay; assay type: biochemical
PI3K β = PI3K β (Homo sapiens (Human), UniProt P42338); test: PI3-Kinase Promega ADP-Glo Max assay; assay type: biochemical
PI3K δ = PI3K δ (Homo sapiens (Human), UniProt O00329); test: PI3-Kinase Promega ADP-Glo Max assay; assay type: biochemical
Chain of PI3K δ (O00329 whole entry): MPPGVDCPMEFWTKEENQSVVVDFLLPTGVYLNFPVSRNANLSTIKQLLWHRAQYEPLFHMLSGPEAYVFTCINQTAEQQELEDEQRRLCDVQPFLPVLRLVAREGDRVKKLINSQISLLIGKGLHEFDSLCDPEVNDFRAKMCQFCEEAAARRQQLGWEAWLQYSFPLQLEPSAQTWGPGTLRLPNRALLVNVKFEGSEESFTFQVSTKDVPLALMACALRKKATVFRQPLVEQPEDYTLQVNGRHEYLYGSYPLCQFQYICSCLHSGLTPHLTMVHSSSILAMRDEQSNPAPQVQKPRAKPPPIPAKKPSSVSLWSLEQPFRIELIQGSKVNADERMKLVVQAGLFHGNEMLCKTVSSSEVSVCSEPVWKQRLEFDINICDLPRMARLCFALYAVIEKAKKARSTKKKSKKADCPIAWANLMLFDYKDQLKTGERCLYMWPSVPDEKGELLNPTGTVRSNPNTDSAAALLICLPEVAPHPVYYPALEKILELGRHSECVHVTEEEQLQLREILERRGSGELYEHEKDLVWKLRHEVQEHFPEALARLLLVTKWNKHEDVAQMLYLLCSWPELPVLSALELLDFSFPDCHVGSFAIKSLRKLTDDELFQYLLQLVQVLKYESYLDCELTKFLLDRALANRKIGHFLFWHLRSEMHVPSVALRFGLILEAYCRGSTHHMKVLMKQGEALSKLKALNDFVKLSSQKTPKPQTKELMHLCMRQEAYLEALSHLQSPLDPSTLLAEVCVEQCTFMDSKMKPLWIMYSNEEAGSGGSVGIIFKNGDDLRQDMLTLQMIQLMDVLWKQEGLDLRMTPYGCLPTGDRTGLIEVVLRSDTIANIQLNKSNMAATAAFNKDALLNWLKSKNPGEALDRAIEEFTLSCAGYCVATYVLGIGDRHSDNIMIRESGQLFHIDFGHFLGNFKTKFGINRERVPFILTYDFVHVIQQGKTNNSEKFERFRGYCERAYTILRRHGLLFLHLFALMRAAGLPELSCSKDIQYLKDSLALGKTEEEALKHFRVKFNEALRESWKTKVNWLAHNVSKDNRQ
Chain of PI3K δ (P27986 whole entry partner): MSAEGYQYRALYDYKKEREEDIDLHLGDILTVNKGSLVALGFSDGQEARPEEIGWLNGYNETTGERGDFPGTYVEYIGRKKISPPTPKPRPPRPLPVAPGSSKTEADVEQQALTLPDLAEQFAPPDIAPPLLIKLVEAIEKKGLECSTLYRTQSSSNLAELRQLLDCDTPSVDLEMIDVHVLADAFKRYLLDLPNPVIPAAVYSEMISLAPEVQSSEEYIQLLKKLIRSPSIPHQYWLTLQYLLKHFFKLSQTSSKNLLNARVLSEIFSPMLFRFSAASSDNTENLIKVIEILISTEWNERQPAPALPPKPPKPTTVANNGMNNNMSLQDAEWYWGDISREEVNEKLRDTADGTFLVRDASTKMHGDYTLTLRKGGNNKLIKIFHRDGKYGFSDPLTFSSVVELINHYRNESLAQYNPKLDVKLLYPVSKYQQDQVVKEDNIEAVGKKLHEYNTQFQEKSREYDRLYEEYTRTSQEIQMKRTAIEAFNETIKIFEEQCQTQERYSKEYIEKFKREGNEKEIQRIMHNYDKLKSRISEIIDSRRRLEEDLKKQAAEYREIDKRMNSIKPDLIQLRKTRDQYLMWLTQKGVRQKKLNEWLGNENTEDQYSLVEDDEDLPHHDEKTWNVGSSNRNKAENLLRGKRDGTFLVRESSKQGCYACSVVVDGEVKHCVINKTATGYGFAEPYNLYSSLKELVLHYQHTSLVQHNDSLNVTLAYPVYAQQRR

PI3K γ = PI3K γ (Homo sapiens (Human), UniProt P48736); test: PI3-Kinase Promega ADP-Glo Max assay; assay type: biochemical
[1] = molecular target: PI3K-γ in RAW264.7 macrophages (Mus musculus (Mouse), UniProt Q9JHG7); test: Raw264.7 p110 γ assay (PI3K-γ selective cellular assay, C5a-stimulated phospho-AKT); assay type: cell-based; conditions: phospho-AKT; read-out: Raw264.7 p110 γ assay IC50
Chain of PI3K-γ in RAW264.7 macrophages (Q9JHG7 whole entry): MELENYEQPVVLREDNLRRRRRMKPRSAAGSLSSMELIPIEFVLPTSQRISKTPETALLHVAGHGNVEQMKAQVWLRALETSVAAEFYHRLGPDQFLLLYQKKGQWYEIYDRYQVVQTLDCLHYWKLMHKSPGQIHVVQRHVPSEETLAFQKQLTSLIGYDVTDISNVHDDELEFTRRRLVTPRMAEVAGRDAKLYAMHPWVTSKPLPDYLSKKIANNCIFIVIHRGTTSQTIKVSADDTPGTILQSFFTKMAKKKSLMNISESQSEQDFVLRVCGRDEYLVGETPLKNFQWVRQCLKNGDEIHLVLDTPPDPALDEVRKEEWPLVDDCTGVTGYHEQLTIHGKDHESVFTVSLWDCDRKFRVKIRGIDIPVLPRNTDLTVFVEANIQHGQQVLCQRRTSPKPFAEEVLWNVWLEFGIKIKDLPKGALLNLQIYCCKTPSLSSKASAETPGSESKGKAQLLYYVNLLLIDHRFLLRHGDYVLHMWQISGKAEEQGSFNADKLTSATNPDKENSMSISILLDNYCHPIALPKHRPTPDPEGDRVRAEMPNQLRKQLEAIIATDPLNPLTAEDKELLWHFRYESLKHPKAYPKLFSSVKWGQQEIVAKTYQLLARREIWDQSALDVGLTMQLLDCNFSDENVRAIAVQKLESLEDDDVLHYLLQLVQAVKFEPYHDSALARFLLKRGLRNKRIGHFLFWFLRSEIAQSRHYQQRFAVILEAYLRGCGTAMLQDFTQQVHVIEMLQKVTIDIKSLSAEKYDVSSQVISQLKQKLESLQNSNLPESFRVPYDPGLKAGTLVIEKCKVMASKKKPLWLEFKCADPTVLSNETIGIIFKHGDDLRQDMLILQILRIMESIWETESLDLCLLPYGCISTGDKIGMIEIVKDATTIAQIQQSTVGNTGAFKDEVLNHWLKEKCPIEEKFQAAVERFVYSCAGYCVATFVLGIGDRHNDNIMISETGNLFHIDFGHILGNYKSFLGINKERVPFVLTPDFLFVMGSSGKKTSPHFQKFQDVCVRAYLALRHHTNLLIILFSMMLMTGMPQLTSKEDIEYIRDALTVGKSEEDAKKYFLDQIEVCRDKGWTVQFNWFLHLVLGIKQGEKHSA
Text: Briefly, serum-starved RAW264.7 cells are stimulated with a known GPCR agonist C5a. […] Cells can be treated with test compounds prior to, simultaneously with, or subsequent to the stimulation by C5a. RAW 264.7 cells respond to the complement component fragment C5a through activation of the C5a receptor, and the C5a receptor activates macrophages and induces cell migration.

PI3K-δ in RAJI cells = PI3K-δ in RAJI cells (Homo sapiens (Human), UniProt O00329); test: RAJI p110 δ assay (PI3K-δ selective cellular assay, phospho-AKT); assay type: cell-based; conditions: phospho-AKT; read-out: RAJI p110 δ assay IC50

Chain of PI3K β (P42338 whole entry): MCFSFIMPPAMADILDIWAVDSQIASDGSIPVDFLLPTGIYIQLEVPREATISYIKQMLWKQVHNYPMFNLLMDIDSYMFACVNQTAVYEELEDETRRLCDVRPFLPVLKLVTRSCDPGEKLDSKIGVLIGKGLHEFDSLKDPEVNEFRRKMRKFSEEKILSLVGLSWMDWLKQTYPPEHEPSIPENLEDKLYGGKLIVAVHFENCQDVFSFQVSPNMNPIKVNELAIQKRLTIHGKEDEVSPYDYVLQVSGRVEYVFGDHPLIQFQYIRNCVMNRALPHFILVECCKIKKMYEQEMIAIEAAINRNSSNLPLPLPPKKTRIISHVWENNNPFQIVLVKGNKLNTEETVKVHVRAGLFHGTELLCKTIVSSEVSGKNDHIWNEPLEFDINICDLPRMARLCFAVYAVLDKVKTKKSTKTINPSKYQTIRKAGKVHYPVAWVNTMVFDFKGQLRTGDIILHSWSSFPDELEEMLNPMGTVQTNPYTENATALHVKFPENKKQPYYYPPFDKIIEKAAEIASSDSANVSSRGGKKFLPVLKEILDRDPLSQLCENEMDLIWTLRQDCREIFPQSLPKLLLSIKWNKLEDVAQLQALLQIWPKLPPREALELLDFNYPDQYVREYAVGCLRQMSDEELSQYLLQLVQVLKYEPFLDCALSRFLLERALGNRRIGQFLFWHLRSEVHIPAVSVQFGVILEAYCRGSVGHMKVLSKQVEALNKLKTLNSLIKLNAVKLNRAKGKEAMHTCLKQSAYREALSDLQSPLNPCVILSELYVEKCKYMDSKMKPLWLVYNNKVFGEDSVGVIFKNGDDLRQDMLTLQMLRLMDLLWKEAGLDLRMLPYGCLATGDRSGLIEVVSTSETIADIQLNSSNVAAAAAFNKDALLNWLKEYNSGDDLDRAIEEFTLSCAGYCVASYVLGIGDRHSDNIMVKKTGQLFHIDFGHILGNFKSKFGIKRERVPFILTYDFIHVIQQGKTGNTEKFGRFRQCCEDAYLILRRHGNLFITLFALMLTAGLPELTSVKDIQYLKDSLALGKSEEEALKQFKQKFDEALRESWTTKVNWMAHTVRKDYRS
Chain of PI3K β (P27986 whole entry partner): as the sequence (P27986 whole entry partner) above
Chain of PI3K α (P42336 whole entry): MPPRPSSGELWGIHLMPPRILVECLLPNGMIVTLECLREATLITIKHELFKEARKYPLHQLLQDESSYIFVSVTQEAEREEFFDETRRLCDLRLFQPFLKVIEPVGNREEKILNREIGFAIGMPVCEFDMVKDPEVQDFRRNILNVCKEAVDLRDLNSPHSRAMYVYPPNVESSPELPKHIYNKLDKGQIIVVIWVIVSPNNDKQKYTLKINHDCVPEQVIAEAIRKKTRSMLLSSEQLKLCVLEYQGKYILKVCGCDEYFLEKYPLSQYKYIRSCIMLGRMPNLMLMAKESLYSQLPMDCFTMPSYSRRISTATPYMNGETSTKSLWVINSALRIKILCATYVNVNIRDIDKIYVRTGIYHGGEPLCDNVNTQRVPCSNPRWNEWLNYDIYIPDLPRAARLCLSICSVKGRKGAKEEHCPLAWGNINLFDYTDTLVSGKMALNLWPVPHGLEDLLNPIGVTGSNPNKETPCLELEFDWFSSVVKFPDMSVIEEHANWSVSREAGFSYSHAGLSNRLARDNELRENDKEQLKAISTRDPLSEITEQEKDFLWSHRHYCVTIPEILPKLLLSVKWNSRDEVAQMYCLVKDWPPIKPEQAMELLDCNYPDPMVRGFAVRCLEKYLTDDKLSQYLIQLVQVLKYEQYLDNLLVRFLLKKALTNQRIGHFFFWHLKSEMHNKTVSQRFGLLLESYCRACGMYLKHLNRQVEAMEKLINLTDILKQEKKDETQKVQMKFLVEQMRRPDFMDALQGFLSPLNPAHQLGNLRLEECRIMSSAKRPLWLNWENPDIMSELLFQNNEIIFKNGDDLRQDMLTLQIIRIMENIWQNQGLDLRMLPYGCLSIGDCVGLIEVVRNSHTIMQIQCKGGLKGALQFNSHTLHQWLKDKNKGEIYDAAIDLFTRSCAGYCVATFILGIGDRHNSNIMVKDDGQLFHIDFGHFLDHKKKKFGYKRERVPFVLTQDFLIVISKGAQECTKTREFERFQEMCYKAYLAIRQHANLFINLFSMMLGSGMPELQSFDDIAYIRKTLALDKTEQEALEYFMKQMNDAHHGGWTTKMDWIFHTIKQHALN
Chain of PI3K α (P27986 whole entry partner): as the sequence (P27986 whole entry partner) above

Compound	IC50 (PI3K α) [µM]	IC50 (PI3K β) [µM]	IC50 (PI3K δ) [µM]	IC50 (PI3K γ) [µM]	PI3K δ/PI3K γ IC50 (selectivity) (PI3K γ)	IC50 [1] [µM]	IC50 (PI3K-δ in RAJI cells) [µM]
C[C@H](NC(=O)c1c(N)nn2cccnc12)c1cc2cccc(C#CC3CCN(C)CC3)c2c(=O)n1-c1ccccc1 [Compound 85]	5 to 10	5 to 10	5 to 10	0.5 to 1	X (X = 10 to <50)	–	–
C[C@H](NC(=O)c1c(N)nn2cccnc12)c1cc2cccc(C#Cc3ccc(=O)[nH]c3)c2c(=O)n1-c1ccccc1 [Compound 33]	–	–	–	–	–	0.001 to 0.05	–
C[C@H](NC(=O)c1c(N)nn2cccnc12)c1cc2cccc(C#Cc3cnn(C)c3)c2c(=O)n1C1CC1 [Compound 25]	1 to 5	1 to 5	5 to 10	–	–	0.001 to 0.05	0.1 to 0.5
C[C@H](NC(=O)c1c(N)nn2cccnc12)c1cc2cccc(N)c2c(=O)n1-c1ccccc1 [Compound 109, (S)-2-amino-N-(1-(8-amino-1-oxo-2-phenyl-1,2-dihydroisoquinolin-3-yl)ethyl)pyrazolo[1,5-a]pyrimidine-3-carboxamide]	5 to 10	1 to 5	1 to 5	0.001 to 0.1	X (X = 10 to <50)	–	–
CC(C)n1c([C@H](C)NC(=O)c2c(N)nn3cccnc23)cc2cccc(C#Cc3cnn(C)c3)c2c1=O [Compound 103]	5 to 10	5 to 10	5 to 10	0.5 to 1	X (X = 10 to <50)	–	–
C[C@H](NC(=O)c1cncc2cccnc12)c1cc2cccc(C#Cc3cnn(C)c3)c2c(=O)n1-c1ccccc1 [Compound 42]	–	–	–	–	–	0.001 to 0.05	–
Cc1cccc(-n2c([C@H](C)NC(=O)c3c(N)nn4cccnc34)cc3cccc(C#Cc4cnn(C)c4)c3c2=O)c1 [Compound 95]	5 to 10	5 to 10	5 to 10	0.1 to 0.5	X (X = 10 to <50)	–	–
C[C@H](NC(=O)c1c(N)nn2cccnc12)c1cc2cccc(C#Cc3cnn(C)c3)c2c(=O)n1C [Compound 94]	1 to 5	0.5 to 1	5 to 10	0.1 to 0.5	X (X = 10 to <50)	–	–
C[C@H](NC(=O)c1c(N)nn2cccnc12)c1cc2cccc(C#Cc3cnn(C)c3)c2c(=O)n1CCS(=O)(=O)N(C)C [Compound 104]	1 to 5	1 to 5	5 to 10	0.001 to 0.1	Y (Y = 50 to <850)	–	–
C[C@H](NC(=O)c1c(N)nn2cccnc12)c1cc2cccc(C#Cc3cnn(C)c3)c2c(=O)n1-c1ccc(F)c(F)c1 [Compound 97]	5 to 10	5 to 10	5 to 10	0.1 to 0.5	X (X = 10 to <50)	–	–
Cc1cc(C)n2nc(N)c(C(=O)N[C@@H](C)c3cc4cccc(C#Cc5cnn(C)c5)c4c(=O)n3-c3ccccc3)c2n1 [Compound 108]	5 to 10	5 to 10	5 to 10	0.1 to 0.5	X (X = 10 to <50)	–	–
Cc1nnc(C#Cc2cccc3cc([C@H](C)NC(=O)c4c(N)nn5cccnc45)n(-c4ccccc4)c(=O)c23)s1 [Compound 86]	5 to 10	1 to 5	1 to 5	0.1 to 0.5	X (X = 10 to <50)	–	–
CNS(=O)(=O)CCn1c([C@H](C)NC(=O)c2c(N)nn3cccnc23)cc2cccc(C#Cc3cnn(C)c3)c2c1=O [Compound 100]	1 to 5	1 to 5	5 to 10	0.001 to 0.1	Y (Y = 50 to <850)	–	–
Cc1ccc(-n2c([C@H](C)NC(=O)c3c(N)nn4cccnc34)cc3cccc(C#Cc4cnn(C)c4)c3c2=O)cc1 [Compound 98]	5 to 10	5 to 10	5 to 10	0.1 to 0.5	X (X = 10 to <50)	–	–
C[C@H](NC(=O)c1c(N)nn2cccnc12)c1cc2cccc(C#Cc3cnn(C)c3)c2c(=O)n1-c1cccc(F)c1 [Compound 93]	5 to 10	5 to 10	5 to 10	0.001 to 0.1	Y (Y = 50 to <850)	–	–
C[C@H](NC(=O)c1c(N)nn2cccnc12)c1cc2cccc(C#Cc3cnn(C)c3)c2c(=O)n1C1CCCCC1 [Compound 99]	5 to 10	5 to 10	5 to 10	1 to 5	X (X = 10 to <50)	–	–
C[C@H](NC(=O)c1c(N)nn2cccnc12)c1cc2cccc(/C=C/c3ccccc3)c2c(=O)n1-c1ccccc1 [Compound 87]	5 to 10	5 to 10	5 to 10	> 5	V (V = 0.1 to 1)	–	–
